According to the CheMixHub viscosity set:
Where “and” joins values, the source holds several entries; their conditions need not be identical. Equal values may be shown once.

Test: xn = mol fraction of the nth substance listed

C[C@H](N)C(=O)N[C@@H](C)C(=O)O + O
viscosity [mPa·s], 101 kPa
Conditions	x1 = 3.87e-05	x1 = 7.58e-05	x1 = 0.000107	x1 = 0.00015	x1 = 0.000172	x1 = 0.0002106	x1 = 0.0002561	x1 = 0.0002871	x1 = 0.0003202	x1 = 0.0003571
305.15 K	0.7669	0.7674	0.7681	0.7688	0.7719	0.7741	0.7782	0.7795	0.7798	0.7828
310.15 K	0.7029	0.7032	0.7033	0.7061	0.7067	0.7084	0.7089	0.7115	0.7139	0.7167
315.15 K	0.6416	0.6452	0.6473	0.6487	0.6499	0.6499	0.6519	0.6548	0.6573	0.6608

C[N+](C)(C)C.[OH-] + O
viscosity [mPa·s], 101 kPa
Conditions	x1 = 0.00504	x1 = 0.0103	x1 = 0.02149	x1 = 0.0337	x1 = 0.04708	x1 = 0.06181	x1 = 0.07809
298.15 K	0.9677	1.119	1.278	1.627	1.978	3.087	4.216
303.15 K	0.8674	1.007	1.148	1.39	1.751	2.66	3.571
313.15 K	0.7118	0.818	0.9314	1.158	1.399	2.031	2.665
323.15 K	0.5982	0.678	0.7738	0.971	1.148	1.587	2.067

C[N+](C)(C)CCO.O=C([O-])c1ccccn1 + O
300 K, 100 kPa
Conditions	viscosity [mPa·s]
x2 = 0.5	232.8
x2 = 0.68	35.3
x2 = 0.81	16.4

NCC(=O)NCC(=O)NCC(=O)NCC(=O)O + O
viscosity [mPa·s], 101 kPa
Conditions	x1 = 9.96e-05	x1 = 0.000119	x1 = 0.0002046	x1 = 0.0002554	x1 = 0.0003681	x1 = 0.0004221	x1 = 0.0005133
298.15 K	0.893	0.894	0.8971	0.8987	0.9022	0.9037	0.9045
308.15 K	0.7219	0.7227	0.7246	0.7261	0.7289	0.7304	0.7337
318.15 K	0.5985	0.5992	0.6011	0.6019	0.6045	0.606	0.6079

O=P([O-])([O-])[O-].[H+].[K+].[K+] + O
viscosity [mPa·s], 101 kPa
Conditions	x1 = 0.0018	x1 = 0.0054	x1 = 0.0089	x1 = 0.012	x1 = 0.016
298.15 K	0.931	1.001	1.091	1.203	1.329
303.15 K	0.8465	0.9207	0.9963	–	1.204
308.15 K	0.7552	0.814	0.8844	0.9818	1.081

[Cl-].[Cl-].[Mg+2] + O
viscosity
Conditions	293.15 K	298.15 K	303.15 K	308.15 K	318.15 K
101 kPa, x1 = 0.0944	–	13.8 mPa·s	–	–	–
101.3 kPa, x1 = 0.0009	1.025 mPa·s	0.911 mPa·s	0.8162 mPa·s	0.7364 mPa·s	0.6104 mPa·s
101.3 kPa, x1 = 0.0018	1.046 mPa·s	0.9296 mPa·s and 0.936 mPa·s	0.8329 mPa·s	0.7517 mPa·s and 0.759 mPa·s	0.629 mPa·s
101.3 kPa, x1 = 0.0045	–	0.988 mPa·s	–	0.798 mPa·s	0.662 mPa·s
101.3 kPa, x1 = 0.0089	–	1.075 mPa·s	–	0.867 mPa·s	0.72 mPa·s
101.3 kPa, x1 = 0.00893	1.219 mPa·s	1.085 mPa·s	0.9729 mPa·s	0.8788 mPa·s	0.7293 mPa·s
101.3 kPa, x1 = 0.0177	1.475 mPa·s	1.314 mPa·s	1.179 mPa·s	1.065 mPa·s	0.8849 mPa·s
101.3 kPa, x1 = 0.03478	2.199 mPa·s	1.95 mPa·s	1.747 mPa·s	1.574 mPa·s	1.302 mPa·s
101.3 kPa, x1 = 0.05127	3.332 mPa·s	2.937 mPa·s	2.616 mPa·s	2.346 mPa·s	1.926 mPa·s
101.3 kPa, x1 = 0.06722	5.271 mPa·s	4.603 mPa·s	4.064 mPa·s	3.615 mPa·s	2.926 mPa·s
101.3 kPa, x1 = 0.08263	9.001 mPa·s	7.752 mPa·s	6.761 mPa·s	5.951 mPa·s	4.726 mPa·s

CCCCOCCO + O=C1CCCCC1
298.15 K, 101 kPa
Conditions	viscosity
x2 = 0.118	2.522 mPa·s and 2.642 mPa·s
x2 = 0.2314	2.28 mPa·s and 2.518 mPa·s
x2 = 0.3404	2.108 mPa·s and 2.402 mPa·s
x2 = 0.4453	1.972 mPa·s and 2.304 mPa·s
x2 = 0.5463	1.873 mPa·s and 2.217 mPa·s
x2 = 0.6436	1.795 mPa·s and 2.146 mPa·s
x2 = 0.7375	1.763 mPa·s and 2.087 mPa·s
x2 = 0.8281	1.766 mPa·s and 2.048 mPa·s
x2 = 0.9155	1.822 mPa·s and 2.024 mPa·s
